Experimental data reported in US20210255193A1, “LYSINE REACTIVE PROBES AND USES THEREOF” (The Scripps Research Institute, priority 2017, published 2021).

Experiments:
Test in all cases: competitive isoTOP-ABPP
Conditions in all cases: 50 uM, in vitro, sol, 231
[1] = molecular target: T1, ABCE1 ATP-binding cassette sub-family E member 1 (Homo sapiens, UniProt P61221)
T1 construct: isoTOP-ABPP experiments performed in cell lysates (in vitro); endogenous in cells; host or cells: soluble proteome of human cancer cell lines (MDA-MB-231, Ramos, Jurkat)
Protocol: (§1) In vitro covalent fragment treatment for isoTOP-ABPP. All compounds were made up as solutions in DMSO (100×) and were used at a final concentration of 50 μM for activated esters and 100 μM for guanidinylating agents. For each profiling sample, 0.5 ml of lysate was treated with 5 μl of the 100× compound stock solution or 5 μl of DMSO. Samples were treated with activated esters for
(§2) STP-alkyne labeling and click chemistry. For concentration-dependent reactivity measurements by isoTOP-ABPP, 0.5 ml proteome aliquots were treated at ambient temperature with 1 mM STP-alkyne 1 (5 μl of 100 mM stock in DMSO) and 0.1 mM STP alkyne 1 (5 μl of 10 mM stock in DMSO), respectively. For competitive isoTOP-ABPP, after in vitro fragment treatment (detailed above), the samples were labeled for 1 h at ambient temperature with 0.1 mM STP-alkyne 1 (5 μl of 10 mM stock in DMSO). Samples were conjugated by copper-mediated azide-alkyne cycloaddition (CuAAC) to either the light (1 mM STP-alkyne or fragment treated) or heavy (0.1 mM STP-alkyne or DMSO treated) TEV tags (10 μl of 5 mM stocks in DMSO, final concentration=100 μM) using tris(2-carboxyethyl)phosphine hydrochloride
(§3) R value calculation and processing. The ratios of light and heavy MS1 peaks for each unique peptide were quantified with a CIMAGE software using default parameters (3 MS1 acquisitions per peak and signal to noise threshold set to 2.5). For reactivity measurements by isoTOP-ABPP, the R value was calculated from the ratio of MS1 peak areas, comparing the 1 mM STP alkyne sample (light TEV tag) with the 0.1 mM STP alkyne sample (heavy TEV tag). For competitive isoTOP-ABPP, the R value was calculated from the ratio of MS1 peak areas, comparing the DMSO treated sample (heavy TEV tag) with the compound treated sample (light TEV tag). […] Ratios for unique peptide entries are calculated for each experiment; overlapping peptides with the same modified lysine (for example, different charge states, MudPIT chromatographic steps or tryptic termini) are grouped together and the median ratio is reported as the final ratio (R). The peptide ratios reported by CIMAGE were further filtered to ensure the removal or correction of low-quality ratios in each individual data set. The quality filters applied were the following: removal of half tryptic peptides; for ratios with high standard deviations from the median (90% of the median or above) the lowest ratio was taken instead of the median; removal of peptides with R=20 and only a single MS2 event triggered during the elution of the parent ion; manual annotation of all the peptides with ratios of 20, removing any peptides with low quality elution profiles that remained after the previous curation steps (only done for competitive isoTOP-ABPP).
(§4) Cross-data processing for fragment screening. For compound treated samples, biological replicates of the same condition were averaged, if the standard deviation was below 60% of the mean; otherwise, for lysines with at least one R value <4 for a particular compound, the lowest value of the ratio set was taken. For lysines, where all R values for a particular compound were ≥4, the average was reported. For peptides containing several possible modified lysines, the lysine with the highest number of quantification events was used for analysis and the remaining, redundant peptides were reported as alternative modification sites. Peptides included in the aggregate dataset (those used for further bioinformatics and statistical analyses) were required to have been quantified in 2 experiments for competitive isoTOP-ABPP. Lysines were categorized as liganded, if they had at least one ratio R≥4 (hit fragments). For liganded lysines with R=20 for all liganding events, lysines were required to have been quantified with R=20 in two separate experiments and were further required to have been quantified with R<20 in one additional experiment.

[2] = molecular target: T2, AGFG1 Arf-GAP domain and FG repeat-containing protein 1 (Homo sapiens, UniProt P52594); type: binding
T2 construct: isoTOP-ABPP experiments performed in cell lysates (in vitro); endogenous in cells; host or cells: soluble proteome of human cancer cell lines (MDA-MB-231, Ramos, Jurkat)
T2 sequence (P52594 1-562): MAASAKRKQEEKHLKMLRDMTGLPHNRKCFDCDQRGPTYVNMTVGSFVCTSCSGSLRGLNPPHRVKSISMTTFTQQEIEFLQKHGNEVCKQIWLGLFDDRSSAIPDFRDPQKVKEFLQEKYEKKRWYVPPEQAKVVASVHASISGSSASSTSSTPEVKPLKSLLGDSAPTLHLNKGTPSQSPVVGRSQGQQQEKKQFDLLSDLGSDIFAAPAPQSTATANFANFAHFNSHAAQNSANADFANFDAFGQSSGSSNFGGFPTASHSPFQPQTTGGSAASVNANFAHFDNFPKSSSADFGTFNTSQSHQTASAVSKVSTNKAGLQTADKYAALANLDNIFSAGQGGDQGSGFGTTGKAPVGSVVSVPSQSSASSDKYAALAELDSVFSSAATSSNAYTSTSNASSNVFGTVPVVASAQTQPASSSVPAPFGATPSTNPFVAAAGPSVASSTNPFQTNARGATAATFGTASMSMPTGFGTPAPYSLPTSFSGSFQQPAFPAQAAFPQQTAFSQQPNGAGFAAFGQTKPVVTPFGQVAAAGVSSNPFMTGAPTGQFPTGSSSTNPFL
Protocol: as §1, §2, §3, §4

[3] = molecular target: T3, HDHD3 Haloacid dehalogenase-like hydrolase domain-containing protein 3 (Homo sapiens, UniProt Q9BSH5); type: binding
T3 construct: isoTOP-ABPP experiments performed in cell lysates (in vitro); endogenous in cells; host or cells: soluble proteome of human cancer cell lines (MDA-MB-231; Ramos and Jurkat also prepared)
T3 sequence (Q9BSH5 1-251): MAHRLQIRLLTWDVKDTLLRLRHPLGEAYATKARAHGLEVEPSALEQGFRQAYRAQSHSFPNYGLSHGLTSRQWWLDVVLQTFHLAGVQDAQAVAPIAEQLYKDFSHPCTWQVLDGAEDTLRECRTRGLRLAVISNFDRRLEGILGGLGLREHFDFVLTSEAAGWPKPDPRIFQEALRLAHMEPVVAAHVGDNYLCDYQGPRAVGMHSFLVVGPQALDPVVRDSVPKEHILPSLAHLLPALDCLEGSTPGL
Protocol: as §1, §2, §3, §4

O=C(Oc1ccc([N+](=O)[O-])cc1[N+](=O)[O-])c1ccc(Oc2ccccc2)cc1 [fragment 39, 2,4-Dinitrophenyl 4-phenoxybenzoate]
isoTOP-ABPP ratio (R) at liganded lysine P61221_K191 [1]: 0.8
isoTOP-ABPP ratio (R) at liganded lysine P61221_K478 [1]: 1.0
isoTOP-ABPP ratio (R) at liganded lysine P52594_K134 [2]: 1.0
isoTOP-ABPP ratio (R) at liganded lysine Q9BSH5_K15 [3]: 1.3
